Measurements from PubChem BioAssay (NCI).
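Results reflect a 48-hour exposure of cells in 96-well plates to compound at five concentrations. GI50 marks 50% less growth. At the TGI there is no net growth.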

What was measured:
Assay in all cases: inhibition of tumour cell growth, NCI panel, 48 h
RXF 393 renal = test system: RXF 393 renal
NCI-H23 lung = test system: NCI-H23 lung
A498 renal = test system: A498 renal
MALME-3M melanoma = test system: MALME-3M melanoma
HCC-2998 colon = test system: HCC-2998 colon
SF-539 CNS = test system: SF-539 CNS
OVCAR-8 ovarian = test system: OVCAR-8 ovarian
EKVX NSCLC = test system: EKVX NSCLC
HT29 colon = test system: HT29 colon
SNB-19 CNS = test system: SNB-19 CNS

SMILES	TGI (RXF 393 renal) [µM]	TGI (NCI-H23 lung) [µM]	TGI (A498 renal) [µM]	TGI (MALME-3M melanoma) [µM]	TGI (HCC-2998 colon) [µM]	TGI (SF-539 CNS) [µM]	TGI (OVCAR-8 ovarian) [µM]	TGI (EKVX NSCLC) [µM]	TGI (HT29 colon) [µM]	TGI (SNB-19 CNS) [µM]	GI50 (RXF 393 renal) [µM]	GI50 (NCI-H23 lung) [µM]	GI50 (A498 renal) [µM]	GI50 (MALME-3M melanoma) [µM]	GI50 (HCC-2998 colon) [µM]	GI50 (SF-539 CNS) [µM]	GI50 (SNB-19 CNS) [µM]	GI50 (OVCAR-8 ovarian) [µM]	GI50 (HT29 colon) [µM]	GI50 (EKVX NSCLC) [µM]
O=C(c1ccccn1)c1nc(-c2ccc(Cl)c(Cl)c2)nc2ccc(Cl)cc12	46.8	87.5	> 100	> 100	> 100	56.4	> 100	> 100	> 100	–	–	–	–	–	–	–	–	–	–	–
c1ccc(CCCC2Sc3cccc4cccc(c34)S2)cc1	> 100	> 100	–	> 100	> 100	> 100	> 100	> 100	> 100	> 100	–	–	–	–	–	–	–	–	–	–
COc1cc([N+](=O)[O-])c(S(=O)(=O)O)cc1N	–	> 100	> 100	–	–	> 100	> 100	> 100	> 100	> 100	–	–	–	–	–	–	–	–	–	–
c1ccc(CCCNc2nnnc3ccccc23)cc1	> 100	> 100	> 100	> 100	–	> 100	> 100	> 100	> 100	> 100	–	–	–	–	–	–	–	–	–	–
COc1cc2c(cc1OC)C(=O)Cc1ccc3c(c1CNCC2)OCO3	–	> 100	> 100	> 100	> 100	> 100	> 100	> 100	> 100	> 100	–	–	–	–	–	–	–	–	–	–
CNS(=O)(=O)c1ccccc1C(=N)c1ccccc1	> 100	> 100	> 100	> 100	–	> 100	> 100	> 100	> 100	> 100	–	–	–	–	–	–	–	–	–	–
Cc1cc(C(=O)N[C@@H](CCC(=O)O)C(=O)O)sc1CC[C@@H]1CNc2nc(N)[nH]c(=O)c2C1	> 100	> 100	> 100	> 100	> 100	> 100	> 90.6	–	> 100	> 100	< 0.0153	0.0952	0.0598	0.0398	0.0751	< 0.01	0.0853	< 0.0172	< 0.0178	–
C=CC[N+]1(CCO)CCN=C1CCCCCCCCCCCCC (stereo unspecified)	2.81	2.82	8.26	3.18	2.66	–	–	2.97	2.56	2.99	1.44	1.5	2.09	1.6	1.37	–	1.63	–	1.3	1.62
O=[N+]([O-])c1cccc(/C=C/c2ccccn2)c1	> 100	> 100	> 100	> 100	> 100	> 100	> 100	> 100	–	> 100	8.6	30	7.19	37.5	44.9	26.6	39	45	–	43.8
CCN1/C(=C/C=C/C=C/c2sc3ccccc3[n+]2CC)Sc2ccccc21	2.53	2.33	4.12	–	1.69	2.49	2.58	0.798	1.2	1.89	0.805	0.164	0.943	–	0.381	0.377	0.35	0.398	0.23	0.122
O=C1OCC2=C1C(c1cccc(C(F)(F)F)c1)c1cc3c(cc1N2CCO)OCO3 (stereo unspecified)	–	> 50	10.9	> 50	17	2.73	> 50	> 50	8.4	> 50	–	2.72	1.08	2.67	1.55	0.884	1.62	2.51	1.31	1.75
O=C(CCc1ccco1)NC1CCN(CC2(c3ccc(Cl)cc3)CCC2)CC1	22.6	38.7	11.9	29.4	19.7	26.6	30.1	–	11.8	30.7	8.53	16.9	0.0318	13.8	6.02	13.4	15.1	14.5	3.44	–
CC(C)[C@H]1CO[C@@H]2O[C@H](C)CC(=O)N21	> 100	> 100	–	> 100	–	> 100	> 100	> 100	> 100	> 100	–	–	–	–	–	–	–	–	–	–
C/C=C/C(=O)[C@@H](O)C(C)C	> 100	> 100	–	> 100	> 100	–	> 100	> 100	> 100	> 100	–	–	–	–	–	–	–	–	–	–
COc1ccc2c(c1)C(=O)c1c-2c(OCCN(C)C)nc2cc(OC)ccc12	4.52	3.5	3.07	–	2.85	3.32	5.35	8.63	1.37	6.24	1.54	1.36	1.39	–	1.33	1.61	1.12	0.957	0.333	2.13
CCCCCCCCCCCCC/C=C1\C[C@H](O)COC1=O	42.6	36.4	33.7	35.5	37.2	35.8	–	32	30.6	32.9	–	–	–	–	–	–	–	–	–	–
O=c1c2cc(Br)ccc2nc(-c2ccccc2)n1NCC1(O)OCC(O)C(O)C1O (stereo unspecified)	> 100	> 100	> 100	> 100	–	> 100	> 100	> 100	> 100	> 100	–	–	–	–	–	–	–	–	–	–
COc1cc(CNc2nc3cc(N)cc(N)c3nc2-c2ccccc2)cc(OC)c1OC	19.9	17	14.7	–	–	8.01	14.8	8.31	19.5	20.8	7.47	8.64	6.34	–	–	1.34	7.22	7	8.63	1.94
